Laboratory results from patent US10336697B2, “Spiro[cyclobutane-1,3′-indolin]-2′-one derivatives as bromodomain inhibitors” (Orion Corporation, priority 2015, dated 2019).

Biological target: Bet BRD4 full length bromo-domain protein (Homo sapiens, UniProt O60885)
Experiment: Bet bromodomain TR-FRET assay (displacement of acetyl histone peptide)
Assay type: binding
Conditions: Bet BRD4 full length bromodomain protein, 300 nM acetyl histone peptide substrate, read-out: IC50

IC50: < 600 nM
Compound: COc1ccccc1S(=O)(=O)Nc1cc(OCC2CN(C)C2)c2c(c1)C1(CCC1)C(=O)N2 [Compound-190, 2-Methoxy-N-(7′-((1-methylazetidin-3-yl)methoxy)-2′-oxospiro [cyclobutane-1,3′-indolin]-5′-yl)benzenesulfonamide]
